In patent US20080249400A1, “Intraoperative Imaging Of Hepatobiliary Structures” (University of Rochester Medical Center, priority 2006, published 2008):

What was measured:
mammals = settings: used in mammals; cited from earlier work
liver [1] = assay: Liver visualization by fluorescent dye in adult pig model after RF thermal ablation (SPY imaging system); type: in vivo; settings: intravenous bolus, liver subjected to RF ablation
liver [2] = assay: Rat liver visualized by laser excitation light delivered by fiber optics through a laparoscope; type: in vivo; settings: male Sprague-Dawley rat
[3] = cited from earlier work

| Compound | toxicity in mammals (mammals) | fluorescence of liver tissue (perfusion) under laser excitation (liver [1]) | fluorescence of liver under laparoscopic laser excitation (liver [2]) | distribution ([3]; after intravenous injection, with normal vascular permeability) | metabolism ([3]; in the body) | enterohepatic recirculation ([3]; in vivo) | excretion route ([3]; in vivo) | intestinal reabsorption ([3]; in vivo) |
| --- | --- | --- | --- | --- | --- | --- | --- | --- |
| N=C(N)c1ccc(/C=C/c2ccc(C(=N)N)cc2O)cc1 [Fluorogold] | low evidence of toxicity |  |  |  |  |  |  |  |
| CC1(C)C(/C=C/C=C/C=C/C=C2\N(CCCCS(=O)(=O)O)c3ccc4ccccc4c3C2(C)C)=[N+](CCCCS(=O)(=O)[O-])c2ccc3ccccc3c21 [ICG, indocyanine green] | low evidence of toxicity | The lighter areas to the right and bottom sides of the photos indicate normal liver tissue | The brightly fluorescing structure is the liver | remains intravascular | not metabolized in the body | does not undergo enterohepatic recirculation | excreted exclusively by the liver | not reabsorbed from the intestine |
| Fast Blue | low evidence of toxicity |  |  |  |  |  |  |  |
